The test system of test [1] is Escherichia coli strain MG1655. Briefly: Bactericidal kinetic test towards E. coli MG1655. As to conditions: HEPES buffer 0.04 M pH 7.4, 26 °C, ca. 10^6 CFU/ml, concentrations of Table 1 (composite 50.0 ppm, AgNO3 0.1 ppm, CHD 0.75 ppm). Type of test: cell-based. How it is done:
A wild-type Escherichia coli strain MG1655 was used as a target organism to evaluate the bactericidal efficacy of the active ingredients i.e. CHD, metallic and ionic Ag and the CHD@Ag composite. Bacteria were maintained on MacConkey agar plates at […]. Prior to each experiment, an overnight culture was prepared by seeding single colonies into 30 ml of Luria Bertani (LB) broth at 37° C. with shaking. This overnight culture was then washed three times by centrifugation (10 min, 4850 rpm, at 25° C.) and resuspended in HEPES buffer (0.04M, pH 7.4). The resulting washed pellet was resuspended in HEPES and brought to an optical density (OD590) of 0.3 which corresponds to ca. 10^8 CFU/ml. Enumeration of bacteria was performed by serial dilution and plating via the pour-plate technique. The inoculated plates were incubated at 37° C. for 24 h and bacterial concentrations were determined by enumerating the resulting CFUs. The bactericidal kinetic tests were carried out in five acid-washed 500 ml Erlenmeyer flasks filled with 200 ml HEPES buffer. The flasks were capped with dense paper caps to allow oxygen supply. Typically, the active ingredients at the desired concentrations and combinations were added first and then 2.0 ml of the E. coli suspension was added to final concentration of ca. 10^6 CFU/ml. The active ingredients included one of the following: CHD@Ag composite, MeOH-extracted composite, AgNO3 solution, CHD solution and combinations thereof in final concentrations and the amounts which are summarized in Table 1. [table] The vessels were kept in an incubated shaker at 26° C. under dark conditions. The disinfection kinetics were followed by sequentially sampling 1.0 ml aliquots form the vessels at the designated times. These samples were neutralized by dilution (1:1) with a neutralizing solution (0.2% w/w sodium thioglycolate, 1.9% w/w sodium thiosulphate, 1% w/w Tween 80, 1.4% w/w lecithin) for 5 min. The efficiency of this neutralization procedure was validated in separate control experiments. […] The plates were incubated at 37° C. for 24 h and bacterial colonies were counted. […]

The subject of another test is P. aeruginosa PU21. Briefly: Bactericidal kinetic test towards P. aeruginosa PU21. Type of test: cell-based, Pseudomonas aeruginosa. Conditions: FIG. 8.

Structures are written as SMILES.

As to `O=[N+]([O-])[O-].[Ag+]` [Ag^+, AgNO3], in test [1], the “biocidal activity towards E. coli MG1655” value is reported as “no biocidal activity”.

Regarding `N=C(NCCCCCCNC(=N)NC(=N)Nc1ccc(Cl)cc1)NC(=N)Nc1ccc(Cl)cc1.O=C(O)[C@H](O)[C@@H](O)[C@H](O)[C@H](O)CO.O=C(O)[C@H](O)[C@@H](O)[C@H](O)[C@H](O)CO` [CHD, Chlorhexidine digluconate], the “bactericidal effect towards P. aeruginosa PU21” value with P. aeruginosa PU21 is reported as “weak bactericidal effect”. For the same compound, the entries for the “biocidal activity towards E. coli MG1655” value in test [1] and in test [1] (listed as CHD solution) were “only slightly affected” and “only very weak biocidal activity”, respectively.

The values above are taken from patent US9289402B2, “Metal entrapped bioactive composites” (YISSUM RESEARCH DEVELOPMENT COMPANY OF THE HEBREW …, priority 2010, dated 2016).
